Source: US12590108B2, “Boracic acid compound” (Phaeno Therapeutics Co., Ltd, priority 2020, dated 2026)

Key:
[1] = tested on: Klebsiella pneumoniae ATCC BAA-1705; experiment: Mouse lung infection model, bacterial load; assay type: in vivo, CD-1 female mice; conditions: endpoint 12 h
Protocol: 36 CD-1 female mice were divided into 12 cages with 3 […] in each cage. The day of infection was denoted as day 0.
Immunosuppressant cyclophosphamide at 150 mg/kg was injected intraperitoneally on day −4 and immunosuppressant cyclophosphamide at 100 mg/kg was injected intraperitoneally on day −1 to induce immunodeficient mice.
On day −1, the strain Klebsiella pneumoniae ATCC BAA-1705 was resuscitated on an MHA plate. Resuscitated colonies were picked and dissolved in sterile physiological saline to prepare a bacterial solution with a concentration of 2.75E+08 CFU/mL for lung infection by nasal drip. The initial time of infection was denoted as 0 h, and 50 μL of the bacterial solution was injected into each mouse by nasal drip at 0 h, that is, the inoculation amount was 1.38E+07 CFU/mouse. 2 h after infection, dosing was performed according to the experimental scheme. The specific experimental scheme was as follows (see Table 6): • (1) 2 h after infection: for the 1st cage of mice, at the endpoint, lung tissue was taken and placed in 10 mL of sterile physiological saline, the tissue was homogenized by a homogenizer, and the homogenate was diluted in a gradient and spotted in a plate, with two replicates for each mouse. • (2) 2 h after infection: the 2nd to 12th cages were respectively treated at 10 mL/kg by volume according to the body weight of the mice, the 2nd cage of mice were given a vehicle by intravenous injection every 2 h, and the endpoint was 12 h; the 3rd cage of mice were given 100 mg/kg of meropenem by intravenous injection every 2 h, and the endpoint was 12 h; the 4th cage of mice were given 100 mg/kg of meropenem and 20 mg/kg of QPX7728 by intravenous injection every 2 h, and the endpoint was 12 h; the 5th cage of mice were given 100 mg/kg of meropenem and 100 mg/kg of compound 15 by intravenous injection every 2 h, and the endpoint was 12 h; the 6th cage of mice were given 100 mg/kg of meropenem and 20 mg/kg of compound 15 by intravenous injection every 2 h, and the endpoint was 12 h; the 7th cage of mice were given 100 mg/kg of meropenem and 4 mg/kg of compound 15 by intravenous injection every 2 h, and the endpoint was 12 h; the 8th cage of mice were given 100 mg/kg of cefepime by intravenous injection every 2 h, and the endpoint was 12 h; the 9th cage of mice were given 100 mg/kg of cefepime and 20 mg/kg of QPX7728 by intravenous injection every 2 h, and the endpoint was 12 h; the 10th cage of mice were given 100 mg/kg of cefepime and 100 mg/kg of compound 15 by intravenous injection every 2 h, and the endpoint was 12 h: the 11th cage of mice were given 100 mg/kg of cefepime and 20 mg/kg of compound 15 by intravenous injection every 2 h, and the endpoint was 12 h; and the 12th cage of mice were given 100 mg/kg of cefepime and 4 mg/kg of compound 15 by intravenous injection every 2 h, and the endpoint was 12 h. At the endpoint, lung tissue was taken and placed in 10 mL of sterile physiological saline, the tissue was homogenized by a homogenizer, and the homogenate was diluted in a gradient and spotted in a plate, with two replicates for each mouse. The bacterial load in the lung tissue of the mice was counted, and the experiment was summarized as follows (see Table 7): […]

[2] = tested on: Escherichia coli ARLG-2829 (NDM-5, OXA-1); experiment: MIC shift, liquid microdilution, test compound fixed at 8 μg/mL; assay type: cell-based
Protocol: (§1) Preparation of compound mother plate: On the day of the experiment, the compound to be tested (the final concentration was 0.3125 to 20 μg/mL) and meropenem (the final concentration ranged from 1 to 64 μg/mL) were dissolved in a corresponding solvent (sterile ddH2O or DMSO) to form 100× mother liquors with the highest test concentration, and the compound to be tested and meropenem were then subjected to 2-fold series gradient dilution in a V-bottom 96-well plate to obtain 100× working solutions with the final concentration.
(§2) Preparation of inoculation solution: Fresh bacterial clones were picked from an overnight Mueller Hinton II Agar medium (MHA, Cat. No. 211438, BD BBLTM) plate, suspended in sterilized physiological saline, and adjusted to a concentration of 1×10^8 CFU/mL, and the suspension was further diluted to 5-10^5 CFU/mL with Cation-Adjusted Mueller Hinton II Broth (MHB, Catalog #212332, BD BBLTM).
(§3) Detection of minimum inhibitory concentration (MIC): 1 μL of the compound to be tested and the meropenem working solution were transferred to the corresponding wells to be tested in a round-bottomed 96-well plate (Catalog #3788, Corning), and 98 μL of the inoculation solution was added to the round-bottomed 96-well plate containing drugs, which was an MIC test plate; and after the plate was inverted and cultured at 37° C. for 20-24 h, the MIC value was read, and the minimum inhibitory concentration for inhibiting bacterial growth was defined as MIC.
(§4) The test compound was tested for minimum inhibitory concentration against 5 strains of Klebsiella pneumoniae ATCC BAA-1705 (KPC-2), ATCC BAA-2470 (NDM-1), ARLG-1196 (CTM-1 group, SHA NDM, TEM), NCTC 13440 (VIM-1), and NCTC 13439 (VIM), and one strain of Escherichia coli ARLG-2829 (NDM-5, OXA-1). According to the requirements of the Institute of Clinical And Laboratory Standard (CLSI), the minimum inhibitory concentration (MIC) of each drug combination was determined by liquid microdilution method under the premise of fixing the concentration of the compound to be tested at 8 μg/mL. The test method was the same as above, and the concentration of meropenem ranged from 0.125 to 8 μg/mL.

[3] = tested on: Klebsiella pneumoniae NCTC 13439 (VIM); experiment: as above; assay type: cell-based; conditions: NCTC13439, meropenem alone, K. pneumoniae NCTC 13439
Protocol: as §1, §2, §3, §4

[4] = tested on: Klebsiella pneumoniae ATCC BAA-1705 (KPC-2); experiment: as above; assay type: cell-based; conditions: ATCCBAA1705, meropenem alone, K. pneumoniae ATCC BAA-1705
Protocol: as §1, §2, §3, §4

[5] = tested on: Klebsiella pneumoniae ATCC BAA-2470 (NDM-1); experiment: as above; assay type: cell-based; conditions: ATCCBAA2470
Protocol: as §1, §2, §3, §4

[6] = tested on: Klebsiella pneumoniae ARLG-1196 (CTM-1 group, SHA NDM, TEM); experiment: as above; assay type: cell-based; conditions: meropenem alone, K. pneumoniae ARLG-1196
Protocol: as §1, §2, §3, §4

[7] = tested on: Klebsiella pneumoniae NCTC 13440 (VIM-1); experiment: as above; assay type: cell-based; conditions: NCTC13440, meropenem alone, K. pneumoniae NCTC 13440
Protocol: as §1, §2, §3, §4

SMILES	Average CFU in mice (lung tissue) ([1]; antibiotic alone 100 mg/kg i.v. q2h) [CFU/mouse]	MIC [2] [µg/mL]	MIC [3] [µg/mL]	MIC [4] [µg/mL]	MIC [5] [µg/mL]	MIC [6] [µg/mL]	MIC [7] [µg/mL]	Average CFU in mice (lung tissue) ([1]; cefepime 100 mg/kg + inhibitor 4 mg/kg i.v. q2h) [CFU/mouse]	Average CFU in mice (lung tissue) ([1]; cefepime 100 mg/kg + inhibitor 20 mg/kg i.v. q2h) [CFU/mouse]	Average CFU in mice (lung tissue) ([1]; cefepime 100 mg/kg + inhibitor 100 mg/kg i.v. q2h) [CFU/mouse]	Average CFU in mice (lung tissue) ([1]; meropenem 100 mg/kg + inhibitor 4 mg/kg i.v. q2h) [CFU/mouse]	Average CFU in mice (lung tissue) ([1]; meropenem 100 mg/kg + inhibitor 20 mg/kg i.v. q2h) [CFU/mouse]	Average CFU in mice (lung tissue) ([1]; meropenem 100 mg/kg + inhibitor 100 mg/kg i.v. q2h) [CFU/mouse]
C[C@@H](O)[C@H]1C(=O)N2C(C(=O)O)=C(S[C@@H]3CN[C@H](C(=O)N(C)C)C3)[C@H](C)[C@H]12 [Meropenem, meropenem, reference compound]	2.73E+08	128	4	32	128	64	16						
CCOc1ccc2c(c1C(=O)O)O[B-](O)(O)CO2 [Compound 15]								2.38E+06	3.73E+05	1.84E+05	6.83E+07	6.04E+06	7.67E+05
